We go through 23 compounds from patent US10723711B2, “1,1,1-trifluoro-3-hydroxypropan-2-yl carbamate derivatives and 1,1,1-trifluoro-4-hydroxybutan-2-yl carbamate derivatives as MAGL inhibitors” (PFIZER INC., priority 2015, dated 2020).

Where a name gives a salt, the structure may show the parent alone. Read-outs that look alike come from different tables or passages of the source.

This assay concerns the target T1, human recombinant Monoacylglycerol Lipase (Homo sapiens, UniProt Q99685).
T1 sequence (Q99685 1-303): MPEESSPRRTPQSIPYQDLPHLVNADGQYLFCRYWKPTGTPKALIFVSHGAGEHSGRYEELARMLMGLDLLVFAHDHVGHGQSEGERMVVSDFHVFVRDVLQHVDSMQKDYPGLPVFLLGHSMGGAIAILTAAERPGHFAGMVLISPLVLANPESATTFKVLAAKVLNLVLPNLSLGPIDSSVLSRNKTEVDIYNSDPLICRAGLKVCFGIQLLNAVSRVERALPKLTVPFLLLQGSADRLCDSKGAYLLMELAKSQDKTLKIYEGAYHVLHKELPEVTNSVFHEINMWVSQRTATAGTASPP
Kind of assay: MAGL inhibition enzymatic assay, fluorogenic substrate 7-HCA, IC50 at T=0 min or after 30 minute incubation (T=30 min). In kind it is biochemical. The note with it: geometric mean of 2-4 determinations unless otherwise indicated. As to the method:
An equal volume of 7-HCA in assay buffer with 10% DMSO was added either immediately (T=0 min) or after a 30 minute incubation (T=30 min) to initiate the reaction. […] After these dilutions, the final concentration of the test compound ranged from 3 μM to 0.03 nM. […] IC50 values were generated based on a four parameter fit model using ABASE software from IDBS.

Where [1] appears, read: T = 0 min (substrate added immediately), read-out: MAGL (T = 0 min) IC50.
Where [2] appears, read: T = 30 min (30 minute incubation), read-out: MAGL (T = 30 min) IC50.

Consider `CN(C)CCOP(=O)(O)OC[C@@H](OC(=O)N1CCC2(CC1)CN(S(=O)(=O)c1ccc(F)cc1)CCO2)C(F)(F)F` (mixture of isomers) [Example 89], for which the IC50 is, setting by setting: under setting [1], above 3000 nM; under setting [2], above 3000 nM.

Take `O=C(O[C@H](CO)C(F)(F)F)N1CCC2(CC1)CC(c1cccnc1)CO2` (mixture of isomers) [Example 122]: the IC50 stood at 385 nM under setting [1] and 32 nM under setting [2].

Turning to `O=C(O[C@H](CO)C(F)(F)F)N1CCC2(CC1)CN(CC1CCCOC1)CCO2` (single isomer, unassigned) [Example 5], the half-inhibitory concentration (IC50) is 1700 nM under setting [1] and 161 nM under setting [2].

On to `CC1N(S(=O)(=O)c2ccc(F)cc2)CCOC12CCN(C(=O)O[C@H](CO)C(F)(F)F)CC2` (single isomer, unassigned) [Example 70], for which the half-inhibitory concentration (IC50) is 655 nM under setting [1] and 69 nM under setting [2].

`O=C(O[C@H](CO)C(F)(F)F)N1CCC2(CC1)CC(n1cccn1)CO2` (single isomer, unassigned) [Example 104]: the IC50 stood at 1860 nM under setting [1] and 157 nM under setting [2].

In the case of `CN(C1COC2(CCN(C(=O)O[C@H](CO)C(F)(F)F)CC2)C1)S(=O)(=O)C1CCOCC1` (single isomer, unassigned) [Example 116], the IC50 was determined as 986 nM under setting [1] and 84 nM under setting [2].

For `CN(C1COC2(CCN(C(=O)O[C@H](CO)C(F)(F)F)CC2)C1)S(=O)(=O)C1CCOCC1` (single isomer, unassigned) [Example 117], the IC50 runs as follows: under setting [1], 1970 nM; under setting [2], 153 nM.

In the case of `O=C(O[C@H](CO)C(F)(F)F)N1CCC2(CC1)CC(Oc1ccccn1)CO2` (single isomer, unassigned) [Example 129], the IC50 under setting [1] was above 3000 nM and the IC50 under setting [2] was 474 nM.

Regarding `O=C(OC(C(F)(F)F)C(F)(F)CO)N1CCC2(CC1)CN(S(=O)(=O)c1ccc(F)cc1)CCO2` (single isomer, unassigned; ent-2) [Example 21, 1,1,1,3,3-Pentafluoro-4-hydroxybutan-2-yl 4-[(4-fluorophenyl)sulfonyl]-1-oxa-4,9-diazaspiro[5.5]undecane-9-carboxylate, ENT-2], the IC50 under setting [1] stood at 599 nM and the IC50 under setting [2] was 53 nM.

As for `O=C(O[C@H](CO)C(F)(F)F)N1C[C@@H]2CN(S(=O)(=O)c3ccc(F)c(F)c3)C[C@@H]2C1` [Example 13, (2R)-1,1,1-Trifluoro-3-hydroxypropan-2-yl (3aR,6aS)-5-[(3,4-difluorophenyl)sulfonyl]hexahydropyrrolo[3,4-c]pyrrole-2(1H)-carboxylate], the IC50 under setting [1] is 368 nM and the IC50 under setting [2] was determined as 35 nM.

For the compound `O=C(O[C@H](CO)C(F)(F)F)N1CCC2(CC1)CN(c1ccc(F)cn1)CCO2` [Example 14, (2R)-1,1,1-Trifluoro-3-hydroxypropan-2-yl 4-(5-fluoropyridin-2-yl)-1-oxa-4,9-diazaspiro[5.5]undecane-9-carboxylate], the IC50 by setting is: under setting [1], 485 nM; under setting [2], 45 nM.

In the case of `O=C(O[C@H](CO)C(F)(F)F)N1CCC(O)(CNS(=O)(=O)c2ccccc2)CC1` [Example 16, (2R)-1,1,1-Trifluoro-3-hydroxypropan-2-yl 4-hydroxy-4-{[(phenylsulfonyl)amino]methyl}piperidine-1-carboxylate], the IC50 by setting is: under setting [1], 1840 nM; under setting [2], 161 nM.

Turning to `O=C1COC2(CCN(C(=O)O[C@H](CO)C(F)(F)F)CC2)CN1Cc1ccc(F)cc1` [Example 17, (2R)-1,1,1-Trifluoro-3-hydroxypropan-2-yl 4-(4-fluorobenzyl)-3-oxo-1-oxa-4,9-diazaspiro[5.5]undecane-9-carboxylate], the half-maximal inhibitory concentration (IC50) by setting is: under setting [1], 951 nM; under setting [2], 110 nM.

As to `CCC1CN(S(=O)(=O)c2ccc(F)cc2)CC2(CCN(C(=O)O[C@H](CO)C(F)(F)F)CC2)O1` (stereo partly drawn) [Example 18, (2R)-1,1,1-Trifluoro-3-hydroxypropan-2-yl 2-ethyl-4-[(4-fluorophenyl)sulfonyl]-1-oxa-4,9-diazaspiro[5.5]undecane-9-carboxylate], the concentration for half-maximal inhibition (IC50) is, setting by setting: under setting [1], 524 nM; under setting [2], 49 nM.

Regarding `O=C(O[C@H](CO)C(F)(F)F)N1CCC2(CC1)CN(S(=O)(=O)N1CCOCC1)CCO2` [Example 22, (2R)-1,1,1-Trifluoro-3-hydroxypropan-2-yl 4-(morpholin-4-ylsulfonyl)-1-oxa-4,9-diazaspiro[5.5]undecane-9-carboxylate], the IC50 by setting is: under setting [1], 2640 nM; under setting [2], 192 nM.

Take `O=C(O[C@H](CO)C(F)(F)F)N1C2CCC1CN(Cc1ccc(F)cc1)C2` [Example 23, (2R)-1,1,1-Trifluoro-3-hydroxypropan-2-yl 3-(4-fluorobenzyl)-3,8-diazabicyclo[3.2.1]octane-8-carboxylate]: the IC50 was above 1520 nM under setting [1] and 78 nM under setting [2].

For `CN(CC1(O)CCN(C(=O)O[C@H](CO)C(F)(F)F)CC1)S(=O)(=O)c1ccccc1` [Example 24, (2R)-1,1,1-Trifluoro-3-hydroxypropan-2-yl 4-hydroxy-4-{[methyl(phenylsulfonyl)amino]methyl}piperidine-1-carboxylate], the 50% inhibitory concentration (IC50) is 1900 nM under setting [1] and 195 nM under setting [2].

Turning to `O=C(O[C@H](CO)C(F)(F)F)N1CCN(Cc2ccc(F)cc2)CC1` [Example 25, (2R)-1,1,1-trifluoro-3-hydroxypropan-2-yl 4-(4-fluorobenzyl)piperazine-1-carboxylate], the half-maximal inhibitory concentration (IC50) worked out at 794 nM under setting [1] and 71 nM under setting [2].

Take `O=C(O[C@H](CO)C(F)(F)F)N1CCC2(CC1)CC(Nc1ccccn1)CO2` (stereo partly drawn) [Example 27, (2R)-1,1,1-Trifluoro-3-hydroxypropan-2-yl 3-(pyridin-2-ylamino)-1-oxa-8-azaspiro[4.5]decane-8-carboxylate]: the IC50 under setting [1] amounted to 484 nM and the IC50 under setting [2] is 43 nM.

With `O=C(O[C@H](CO)C(F)(F)F)N1CCC2(CC1)CN(Cc1ccc(F)cc1)S(=O)(=O)CO2` [Example 28, (2R)-1,1,1-Trifluoro-3-hydroxypropan-2-yl 4-(4-fluorobenzyl)-1-oxa-3-thia-4,9-diazaspiro[5.5]undecane-9-carboxylate 3,3-dioxide], the IC50 stood at 696 nM under setting [1] and 85 nM under setting [2].

For `CN([C@H]1COC2(CCN(C(=O)O[C@H](COP(=O)(O)O)C(F)(F)F)CC2)C1)S(=O)(=O)c1ccccc1` [Example 30, (2R)-3,3,3-Trifluoro-2-[({(3R)-3-[methyl(phenylsulfonyl)amino]-1-oxa-8-azaspiro[4.5]dec-8-yl}carbonyl)oxy]propyl phosphate, disodium salt], the half-inhibitory concentration (IC50) under setting [1] was above 3000 nM and the half-inhibitory concentration (IC50) under setting [2] came out at 549 nM.

Regarding `O=C(O[C@H](COP(=O)(O)O)C(F)(F)F)N1CCC2(CC1)CN(S(=O)(=O)c1ccc(F)cc1)CCO2` [Example 33, (2R)-3,3,3-Trifluoro-2-[({4-[(4-fluorophenyl)sulfonyl]-1-oxa-4,9-diazaspiro[5.5]undec-9-yl}carbonyl)oxy]propyl phosphate, (bis)-L-lysine salt], the IC50 by setting is: under setting [1], above 3000 nM; under setting [2], above 3000 nM.

For the compound `O=C(OC(CO)C(F)(F)F)N1CCC(c2ccnc(N3CCOCC3)n2)CC1` (stereo not shown) [Example 35], the concentration for half-maximal inhibition (IC50) under setting [1] was found to be 339 nM and the half-maximal inhibitory concentration (IC50) under setting [2] is 32 nM.
